Consider eleven molecules from publication PMC11945486, “TAS1R2/TAS1R3 Single-Nucleotide Polymorphisms Affect Sweet Taste Receptor Activation by Sweeteners: The SWEET Project” (Nutrients, 2025).

The target of this assay is T1, human TAS1R2-WT/TAS1R3-A735T (Homo sapiens, UniProt Q7RTX0+Q8TE23, A735T).
T1 construct: expressed in transfected cells; host or cells: HEK293T stably expressing Gα16gust44
T1 sequence (Q8TE23 20-839): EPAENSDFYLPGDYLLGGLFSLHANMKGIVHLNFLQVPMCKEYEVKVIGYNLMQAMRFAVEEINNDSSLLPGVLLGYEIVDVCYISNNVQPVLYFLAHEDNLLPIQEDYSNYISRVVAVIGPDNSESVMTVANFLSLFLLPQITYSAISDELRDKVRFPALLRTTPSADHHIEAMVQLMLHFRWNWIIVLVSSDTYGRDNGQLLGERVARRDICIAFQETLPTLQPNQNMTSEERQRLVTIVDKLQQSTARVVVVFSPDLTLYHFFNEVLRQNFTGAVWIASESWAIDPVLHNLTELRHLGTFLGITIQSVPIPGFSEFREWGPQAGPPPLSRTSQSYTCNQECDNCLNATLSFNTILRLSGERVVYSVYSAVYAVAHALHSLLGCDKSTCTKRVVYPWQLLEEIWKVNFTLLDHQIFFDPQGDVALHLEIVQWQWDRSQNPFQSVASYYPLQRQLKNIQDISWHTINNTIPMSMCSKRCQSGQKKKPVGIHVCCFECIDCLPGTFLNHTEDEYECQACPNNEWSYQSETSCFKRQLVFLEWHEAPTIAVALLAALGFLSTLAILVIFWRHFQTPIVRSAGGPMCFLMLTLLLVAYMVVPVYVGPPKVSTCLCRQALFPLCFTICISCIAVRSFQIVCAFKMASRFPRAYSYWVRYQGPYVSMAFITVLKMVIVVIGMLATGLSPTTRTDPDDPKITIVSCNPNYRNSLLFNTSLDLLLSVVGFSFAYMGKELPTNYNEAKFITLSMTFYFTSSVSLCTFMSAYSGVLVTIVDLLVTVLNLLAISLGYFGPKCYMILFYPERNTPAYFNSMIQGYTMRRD
T1 sequence (Q7RTX0 21-852 A735T): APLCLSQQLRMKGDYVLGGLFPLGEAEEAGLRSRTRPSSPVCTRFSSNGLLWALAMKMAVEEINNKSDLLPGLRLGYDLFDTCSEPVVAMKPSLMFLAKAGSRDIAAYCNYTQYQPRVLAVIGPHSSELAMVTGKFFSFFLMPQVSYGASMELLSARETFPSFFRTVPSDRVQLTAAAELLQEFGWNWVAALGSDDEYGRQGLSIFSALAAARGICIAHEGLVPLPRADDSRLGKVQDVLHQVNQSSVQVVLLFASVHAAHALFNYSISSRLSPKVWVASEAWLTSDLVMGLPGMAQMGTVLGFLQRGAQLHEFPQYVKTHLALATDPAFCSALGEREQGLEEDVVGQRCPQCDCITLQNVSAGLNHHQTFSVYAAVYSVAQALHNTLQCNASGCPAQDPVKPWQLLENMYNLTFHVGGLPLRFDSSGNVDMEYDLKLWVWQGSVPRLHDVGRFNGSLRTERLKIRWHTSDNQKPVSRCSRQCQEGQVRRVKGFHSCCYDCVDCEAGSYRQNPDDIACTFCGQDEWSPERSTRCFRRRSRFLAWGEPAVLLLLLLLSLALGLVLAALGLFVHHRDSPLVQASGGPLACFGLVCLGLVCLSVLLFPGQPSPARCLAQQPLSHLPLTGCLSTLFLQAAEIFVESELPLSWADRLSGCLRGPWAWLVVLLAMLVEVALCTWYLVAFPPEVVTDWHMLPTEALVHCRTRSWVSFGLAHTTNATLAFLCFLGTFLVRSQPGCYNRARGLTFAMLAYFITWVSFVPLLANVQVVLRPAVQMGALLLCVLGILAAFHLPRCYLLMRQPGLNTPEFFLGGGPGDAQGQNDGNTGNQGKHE
In words: Calcium mobilisation assay, TAS1R2-WT with TAS1R3 variant A735T. It counts as cell-based. Particulars: for Max ΔF/F0: maximal signal amplitude. The source says: The coding sequences for TAS1R2 and TAS1R3 were commercially synthesised, and the human codon was optimised for expression in human cells. The coding sequences of human TAS1R2 and TAS1R3 were subcloned and inserted into the mammalian expression vectors pcDNA6/myc-HisA and pcDNA4/myc-HisA (Invitrogen; Thermo Fisher Scientific; Illkirch, France) between the EcoRI and NotI restriction sites, generating the plasmids pcDNA6-TAS1R2 and pcDNA4-TAS1R3, respectively. To increase protein expression in mammalian cells, an upstream start codon was used, which was a sequence called MAX, corresponding to the QBI SP163 element also described in pcDNA4-HisMax (Invitrogen; Thermo Fisher Scientific; Illkirch, France). To measure the expression level of the receptor by immunohistochemistry, we used the FLAG sequence ([…]) in the C-terminal position, which encodes the FLAG tag epitope. SNP variants of TAS1R2 and TAS1R3 were constructed based on […], respectively, using site-directed mutagenesis (Genewiz; Leipzig, Germany).
The HEK293T cells were kindly provided by Jay P. Slack (Givaudan Flavors Corporation; Cincinnati, OH, USA). HEK293T cells stably transfected with Gα16gust44 [43, 67] were seeded in poly-D-lysine-coated clear-bottom black 96-well plates (0.35 × 10^5 cells/well) in high-glucose DMEM supplemented with 2 mM GlutaMAX, 10% dialysed foetal bovine serum with penicillin/streptomycin and G418 (400 μg/mL) at 37 °C and 6.3% CO2 in a humidified atmosphere as previously reported. […] As a negative control, HEK293T cells were mock-transfected with the empty expression vector. After a further 24 h of incubation, the HEK293T cells were washed with C1 buffer (130 mM NaCl, 5 mM KCl, 10 mM HEPES pH 7.4 and 2 mM CaCl2). The 96-well plates containing the cells were then stimulated with sweet-tasting compounds. […] Different concentration ranges were tested depending on the sweet compound injected. The Ca^2+ changes were expressed as fractional changes in fluorescent light intensity: ΔF/F = (F − F0)/F0, where F was the fluorescent light intensity at each point, and F0 was the value of emitted fluorescent light prior to stimulus application. To calculate dose–response relationships, the changes in fluorescence upon stimulus application were averaged, mock-subtracted and baseline-corrected. The dose–response data obtained were adjusted using a 4-parameter logistic equation. The half-maximal effective concentrations (EC50 values) and maximal signal amplitudes were calculated using SigmaPlot software (version 15.0) (Systat Software; San Jose, CA, USA).
For in vitro calcium mobilisation assay performed on hTAS1R2-SNPs, hTAS1R3-SNPs and mTAS1R3-I60T, 6 to 7 concentrations were tested for each sweet compound, plus buffer alone. All concentration–receptor combinations were measured in duplicate, and each experiment was repeated at least 4 times (8 wells/concentration). Results were expressed for each concentration as ΔF/F mean ± SEM and represented as dose–response curves.
A general note: Calcium assays in cells follow changes in intracellular calcium, usually with a dye or a luminescent sensor.

Read-outs that look alike come from different tables or passages of the source. No end group written: not given here.

As for `CC1=CC(=O)NS(=O)(=O)O1` [Acesulfame K, acesulfame K], the “R1 = Variant EC50/WT EC50” value amounted to 1.1 and the “Max ΔF/F0” value was 0.47 ± 0.02. Where the note is “read-out: EC50”, the 50% effective concentration (EC50) (as a rule, the concentration at which the effect is half-maximal) stood at 685 ± 56 µM.

Regarding `O=S(=O)(O)NC1CCCCC1` [Cyclamate, cyclamate], the EC50 (read-out: EC50) turned out to be 1870 ± 32 µM.

For `C[C@H](CC[C@@H](O[C@@H]1O[C@H](CO[C@@H]2O[C@H](CO)[C@@H](O)[C@H](O)[C@H]2O)[C@@H](O)[C@H](O)[C@H]1O[C@@H]1O[C@H](CO)[C@@H](O)[C@H](O)[C@H]1O)C(C)(C)O)[C@H]1CC[C@@]2(C)[C@@H]3CC=C4[C@@H](CC[C@H](O[C@@H]5O[C@H](CO[C@@H]6O[C@H](CO)[C@@H](O)[C@H](O)[C@H]6O)[C@@H](O)[C@H](O)[C@H]5O)C4(C)C)[C@]3(C)[C@H](O)C[C@]12C` [Mogroside V, mogroside V], the “R1 = Variant EC50/WT EC50” value is recorded as 0.9 and the “Max ΔF/F0” value stood at 1.17 ± 0.03. Besides, the EC50 (read-out: EC50) was determined as 28.7 ± 2.2 µM.

Consider `COc1ccc(CCC(=O)c2c(O)cc(O[C@@H]3O[C@H](CO)[C@@H](O)[C@H](O)[C@H]3O[C@@H]3O[C@@H](C)[C@H](O)[C@@H](O)[C@H]3O)cc2O)cc1O` [NHDC, neohesperidin dihydrochalcone], for which the “R1 = Variant EC50/WT EC50” value is listed as 0.8 and the “Max ΔF/F0” value was 1.00 ± 0.01. Moreover, the 50% effective concentration (EC50) (read-out: EC50) was 42.2 ± 1.4 µM.

Regarding `COC(=O)[C@H](Cc1ccccc1)NC(=O)[C@H](CC(=O)O)NCCC(C)(C)C` [Neotame], the “R1 = Variant EC50/WT EC50” value came to 0.8 and the “Max ΔF/F0” value is 0.61 ± 0.02. Besides, the EC50 (read-out: EC50) is 0.93 ± 0.07 µM.

Regarding `C=C(C)[C@@H]1CC=C(/C=N/O)CC1` [Perillartine, perillartine], the “R1 = Variant EC50/WT EC50” value was determined as 0.9 and the “Max ΔF/F0” value is 1.56 ± 0.23. Also, the EC50 (read-out: EC50) is 12.6 ± 5.9 µM.

`C=C1C[C@@]23CC[C@H]4[C@@](C)(CCC[C@@]4(C)C(=O)O[C@@H]4O[C@H](CO)[C@@H](O)[C@H](O[C@@H]5O[C@H](CO)[C@@H](O)[C@H](O)[C@H]5O)[C@H]4O[C@@H]4O[C@H](CO)[C@@H](O)[C@H](O)[C@H]4O)[C@@H]2CC[C@]1(O[C@@H]1O[C@H](CO)[C@@H](O)[C@H](O[C@@H]2O[C@H](CO)[C@@H](O)[C@H](O)[C@H]2O)[C@H]1O[C@@H]1O[C@H](CO)[C@@H](O)[C@H](O)[C@H]1O)C3` [Rebaudioside M, rebaudioside M]: the “R1 = Variant EC50/WT EC50” value was determined as 0.6 and the “Max ΔF/F0” value is 1.24 ± 0.04. Also, under “read-out: EC50”, the EC50 turned out to be 23 ± 1.9 µM.

Take `OC[C@H]1O[C@H](O[C@]2(CCl)O[C@H](CCl)[C@@H](O)[C@@H]2O)[C@H](O)[C@@H](O)[C@H]1Cl` [Sucralose]: the “R1 = Variant EC50/WT EC50” value was 1.4 and the “Max ΔF/F0” value is 0.70 ± 0.01. In addition, the EC50 (read-out: EC50) is 151 ± 4 µM.

For the molecule “brazzein (QDKCKKVYENYPVSKCQLANQCNYDCKLDKHARSGECFYDEKRNLQCICDYCEY; ends and bridges not checked; cysteine pairing not given here; UniProt P56552 1-54, looked up) [sweet-tasting protein obtained by recombinant production using the yeast Pichia pastoris]”, the “R1 = Variant EC50/WT EC50” value is reported as 0.7 and the “Max ΔF/F0” value is given as 0.90 ± 0.05. In addition, the EC50 (brazzein) was 82.7 ± 14.9 µg/mL.

Turning to thaumatin, the “R1 = Variant EC50/WT EC50” value was found to be 0.7 and the “Max ΔF/F0” value turned out to be 0.70 ± 0.06.

B1: thaumatin (protein)
chain: ATFEIVNRCSYTVWAAASKGDAALDAGGRQLNSGESWTINVEPGTKGGKIWARTDCYFDDSGSGICKTGDCGGLLRCKRFGRPPTTLAEFSLNQYGKDYIDISNIKGFNVPMDFSPTTRGCRGVRCAADIVGQCPAKLKAPGGGCNDACTVFQTSEYCCTTGKCGPTEYSRFFKRLCPDAFSYVLDKPTTVTCPGSSNYRVTFCPTA
modifications: Eight disulfides
notes: sweet-tasting plant protein, E957
For the molecule B1, for the setting “read-out: EC50”, the 50% effective concentration (EC50) is 7.2 ± 1.5 µM.
